Test results taken from ChEMBL document CHEMBL1152529, “Synthesis, antifungal, haemolytic and cytotoxic activities of a series of bis(alkylpyridinium)alkanes” (Bioorg Med Chem, 2009).
≈ marks a conversion by molar mass, not a printed value. Each block holds one molecule with its values, some of them ahead of it. Calls of active or inactive are those of the source. The calls are words filed in the database; no cut-off is given here.

Experiments:
Cryptococcus neoformans = assay: Antifungal activity against Cryptococcus neoformans ATCC 90112 after 48 to 72 hrs by broth microdilution method; assay type: functional; conditions: Cryptococcus neoformans, ATCC 90112; for MIC: read-out: MIC
Candida albicans = assay: Antifungal activity against Candida albicans ATCC 10231 after 48 to 72 hrs by broth microdilution method; assay type: functional; conditions: Candida albicans, ATCC 10231; for MIC: read-out: MIC
[1] = molecular target: Phospholipase A2, major isoenzyme (Sus scrofa, UniProt P00592); assay: Inhibition of porcine pancreatic PLA2 after 1 hr by radiometric method
Phospholipase A2, major isoenzyme, sequence (P00592 whole entry): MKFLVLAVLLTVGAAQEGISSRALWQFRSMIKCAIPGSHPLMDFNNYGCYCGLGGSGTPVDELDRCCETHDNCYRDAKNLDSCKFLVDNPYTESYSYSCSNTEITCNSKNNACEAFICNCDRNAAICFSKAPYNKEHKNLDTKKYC

[2] = Inhibition of phospholipid fatty acyl chain hydrolysis activity of Cryptococcus neoformans var. grubii H99 PLB assessed as formation of radiolabeled free fatty acid at pH 4 by radiometric assay
[3] = system: Cryptococcus neoformans var. grubii H99; assay: Inhibition of lysophospholipid fatty acyl chain hydrolysis activity of Cryptococcus neoformans var. grubii H99 PLB assessed as formation of radiolabeled free fatty acid at 0.25 to 250 uM at pH 4 by radiometric assay
[4] = system: Cryptococcus neoformans var. grubii H99; assay: Inhibition of lysophospholipase acyltransferase activity of Cryptococcus neoformans var. grubii H99 PLB assessed as formation of radiolabeled dipalmitoyl phosphatidylcholine at 0.25 to 250 uM at pH 4 by radiometric assay
A549 = assay: Cytotoxicity against human A549 cells after 3 hrs by MTS assay; assay type: cell-based; conditions: A549, 3 h
MDCK = assay: Cytotoxicity against MDCK cells after 3 hrs by MTS assay; assay type: cell-based; conditions: Canis lupus familiaris
Pichia kudriavzevii = assay: Antifungal activity against Candida krusei ATCC 6258 after 48 to 72 hrs by broth microdilution method; assay type: functional
Candida parapsilosis = assay: Antifungal activity against Candida parapsilosis ATCC 22019 after 48 to 72 hrs by broth microdilution method; assay type: functional; conditions: Lodderomyces parapsilosis
Nakaseomyces glabratus = assay: Antifungal activity against Candida glabrata 04-202345 after 48 to 72 hrs by broth microdilution method; assay type: functional
Aspergillus fumigatus = assay: Antifungal activity against Aspergillus fumigatus ATCC 204305 after 48 to 72 hrs by broth microdilution method; assay type: functional
Aspergillus flavus = assay: Antifungal activity against Aspergillus flavus ATCC 204304 after 48 to 72 hrs by broth microdilution method; assay type: functional
Aspergillus terreus = assay: Antifungal activity against Aspergillus terreus 05-202844 after 48 to 72 hrs by broth microdilution method; assay type: functional
Lomentospora prolificans = assay: Antifungal activity against Scedosporium prolificans 05-203060 after 48 to 72 hrs by broth microdilution method; assay type: functional
Scedosporium apiospermum = assay: Antifungal activity against Scedosporium apiospermum 05-203100 after 48 to 72 hrs by broth microdilution method; assay type: functional
Rhizopus arrhizus = assay: Antifungal activity against Rhizopus oryzae 05-203111 after 48 to 72 hrs by broth microdilution method; assay type: functional
Exophiala spinifera = assay: Antifungal activity against Exophiala spinifera 03-200803 after 48 to 72 hrs by broth microdilution method; assay type: functional
Curvularia australiensis = assay: Antifungal activity against Bipolaris australiensis 03-201798 after 48 to 72 hrs by broth microdilution method; assay type: functional
[5] = Cytotoxicity against human erythrocytes assessed as hemolysis after 1 hr; assay type: cell-based, Erythrocyte

Structure (SMILES): CCCCCc1cc[n+](CCCCCCCCCCCC[n+]2ccc(CCCCC)c(CCCCC)c2)cc1CCCCC
MFC (Cryptococcus neoformans): 1.4 µM
MIC (Cryptococcus neoformans): 1.4 µM
MFC (Candida albicans): 2.7 µM
MIC (Candida albicans): 2.7 µM
MFC (Pichia kudriavzevii): 2.7 µM
MIC (Pichia kudriavzevii): 2.7 µM
MFC (Candida parapsilosis): 2.7 µM
MIC (Candida parapsilosis): 2.7 µM
MFC (Nakaseomyces glabratus): 1.4 µM
MIC (Nakaseomyces glabratus): 1.4 µM
MFC (Aspergillus fumigatus): 22 µM
MIC (Aspergillus fumigatus): 11 µM
MFC (Aspergillus flavus): 22 µM
MIC (Aspergillus flavus): 11 µM
MFC (Aspergillus terreus): 2.7 µM
MIC (Aspergillus terreus): 1.4 µM
MFC (Lomentospora prolificans): 5.5 µM
MIC (Lomentospora prolificans): 2.7 µM
MFC (Scedosporium apiospermum): 5.5 µM
MIC (Scedosporium apiospermum): 5.5 µM
MFC (Rhizopus arrhizus): 2.7 µM
MIC (Rhizopus arrhizus): 2.7 µM
MFC (Exophiala spinifera): 2.7 µM
MIC (Exophiala spinifera): 2.7 µM
MFC (Curvularia australiensis): 2.7 µM
MIC (Curvularia australiensis): 2.7 µM
IC50 [1]: 52 µM
IC50 [2]: 4 µM
Activity [3]: inactive
Activity [4]: inactive
HC50 at 1 h [5]: 17.5 µM
IC50 (A549): 45 µM
IC50 (MDCK): 70 µM

Structure (SMILES): CCCCc1cc[n+](CCCCCCCCCCCC[n+]2ccc(CCCC)cc2)cc1
MIC (Cryptococcus neoformans): 11 µM
MIC (Candida albicans): 5.5 µM
HC50 at 1 h [5]: > 350 µM
IC50 (A549): 215 µM
IC50 (MDCK): 150 µM

Structure (SMILES): CC(C)c1cc[n+](CCCCCCCCCCCC[n+]2ccc(C(C)C)cc2)cc1
MIC (Cryptococcus neoformans): 44 µM
MIC (Candida albicans): 22 µM
IC50 (A549): > 350 µM
IC50 (MDCK): > 350 µM

Structure (SMILES): CCc1cc[n+](CCCCCCCCCCCC[n+]2ccc(CC)cc2)cc1
MIC (Cryptococcus neoformans): 44 µM
MIC (Candida albicans): 11 µM
IC50 [1]: > 250 µM
IC50 [2]: 138 µM
Activity [3]: inactive
Activity [4]: inactive
IC50 (A549): > 350 µM
IC50 (MDCK): > 350 µM

Structure (SMILES): C[C@@H]1[C@H](O)[C@@H](C)/C=C/C=C/C=C/C=C/C=C/C=C/C=C/[C@H](O[C@@H]2O[C@H](C)[C@@H](O)[C@H](N)[C@@H]2O)C[C@@H]2O[C@](O)(C[C@@H](O)C[C@@H](O)[C@H](O)CC[C@@H](O)C[C@@H](O)CC(=O)O[C@H]1C)C[C@H](O)[C@H]2C(=O)O [AMPHOTERICIN B]
MIC (Cryptococcus neoformans): 0.54 µM (≈ 0.499 µg/mL)
MIC (Candida albicans): 0.54 µM (≈ 0.499 µg/mL)
MIC (Pichia kudriavzevii): 0.54 µM (≈ 0.499 µg/mL)
MIC (Candida parapsilosis): 0.13 µM (≈ 0.12 µg/mL)
MIC (Nakaseomyces glabratus): 1.1 µM (≈ 1.02 µg/mL)
MIC (Aspergillus fumigatus): 0.54 µM (≈ 0.499 µg/mL)
MIC (Aspergillus flavus): 0.54 µM (≈ 0.499 µg/mL)
MIC (Aspergillus terreus): 1.1 µM (≈ 1.02 µg/mL)
MIC (Lomentospora prolificans): 4.3 µM (≈ 3.97 µg/mL)
MIC (Scedosporium apiospermum): 17 µM (≈ 15.7 µg/mL)
MIC (Rhizopus arrhizus): 0.06 µM (≈ 0.0554 µg/mL)
MIC (Exophiala spinifera): 0.27 µM (≈ 0.25 µg/mL)
MIC (Curvularia australiensis): 0.03 µM (≈ 0.0277 µg/mL)

Structure (SMILES): CCCCC(CCCC)c1cc[n+](CCCCCCCCCCCC[n+]2ccc(C(CCCC)CCCC)cc2)cc1
MIC (Cryptococcus neoformans): 1.4 µM
MIC (Candida albicans): 1.4 µM
IC50 [1]: 53 µM
IC50 [2]: 5 µM
Activity [3]: inactive
Activity [4]: inactive
HC50 at 1 h [5]: 124 µM
IC50 (A549): 55 µM
IC50 (MDCK): 56 µM

Structure (SMILES): c1ccc(CCCc2cc[n+](CCCCCCCCCCCC[n+]3ccc(CCCc4ccccc4)cc3)cc2)cc1
MIC (Cryptococcus neoformans): 2.7 µM
MIC (Candida albicans): 2.7 µM
IC50 [1]: 104 µM
IC50 [2]: 5 µM
Activity [3]: inactive
Activity [4]: inactive
HC50 at 1 h [5]: 67 µM
IC50 (A549): 55 µM
IC50 (MDCK): 65 µM

Structure (SMILES): c1cc[n+](CCCCCCCCCCCC[n+]2ccccc2)cc1
MIC (Cryptococcus neoformans): 88 µM
MIC (Candida albicans): 44 µM
IC50 [1]: > 250 µM
IC50 [2]: > 250 µM
Activity [3]: inactive
Activity [4]: inactive
HC50 at 1 h [5]: > 350 µM

Further lines, with some results ahead:

MIC (Cryptococcus neoformans): 88 µM
MIC (Candida albicans): 22 µM
IC50 [1]: > 250 µM
IC50 [2]: > 250 µM
Activity [3]: inactive
Activity [4]: inactive
Structure (SMILES): Cc1cc[n+](CCCCCCCCCCCC[n+]2ccc(C)cc2)cc1
IC50 (A549): > 350 µM
IC50 (MDCK): > 350 µM

MIC (Cryptococcus neoformans): 2.7 µM
MIC (Candida albicans): 2.7 µM
Structure (SMILES): CCCCCCCCc1cc[n+](CCCCCCCCCCCC[n+]2ccc(CCCCCCCC)cc2)cc1
HC50 at 1 h [5]: 98 µM

MIC (Cryptococcus neoformans): 2.7 µM
MIC (Candida albicans): 5.5 µM
Structure (SMILES): CC(C)(C)CCc1cc[n+](CCCCCCCCCCCC[n+]2ccc(CCC(C)(C)C)cc2)cc1
HC50 at 1 h [5]: > 350 µM
IC50 (A549): 105 µM
IC50 (MDCK): 135 µM

MIC (Cryptococcus neoformans): 5.5 µM
MIC (Candida albicans): 2.7 µM
IC50 [1]: 56 µM
IC50 [2]: 47 µM
Activity [3]: inactive
Activity [4]: inactive
Structure (SMILES): C=CCCCc1cc[n+](CCCCCCCCCCCC[n+]2ccc(CCCC=C)cc2)cc1
HC50 at 1 h [5]: > 350 µM
IC50 (A549): > 350 µM
IC50 (MDCK): > 350 µM

MIC (Cryptococcus neoformans): 88 µM
MIC (Candida albicans): 88 µM
Structure (SMILES): OCc1cc[n+](CCCCCCCCCCCC[n+]2ccc(CO)cc2)cc1

MIC (Cryptococcus neoformans): 2.7 µM
MIC (Candida albicans): 5.5 µM
IC50 [1]: 67 µM
IC50 [2]: 57 µM
Activity [3]: inactive
Activity [4]: inactive
Structure (SMILES): CC(C)CCc1cc[n+](CCCCCCCCCCCC[n+]2ccc(CCC(C)C)cc2)cc1
HC50 at 1 h [5]: > 350 µM
IC50 (A549): > 350 µM
IC50 (MDCK): > 350 µM
